Consider 40 compounds from patent US10329302B2, “Bicyclic-fused heteroaryl or aryl compounds” (Pfizer Inc., priority 2014, dated 2019).

The assay concerns the target human IRAK4 kinase domain (aa 154-460) (Homo sapiens (Human), UniProt Q9NWZ3). Put plainly: IRAK4 Enzymatic DELFIA Assay, Protocol B. Particulars: human IRAK4 kinase domain (aa 154-460), 0.6 mM ATP (KM); read-out: IRAK4 DELFIA Protocol B IC50. The assay is classed as biochemical. An excerpt: IRAK4 Enzymatic DELFIA Assay, Protocol B.

human IRAK4 kinase domain (aa 154-460), sequence (Q9NWZ3 154-460): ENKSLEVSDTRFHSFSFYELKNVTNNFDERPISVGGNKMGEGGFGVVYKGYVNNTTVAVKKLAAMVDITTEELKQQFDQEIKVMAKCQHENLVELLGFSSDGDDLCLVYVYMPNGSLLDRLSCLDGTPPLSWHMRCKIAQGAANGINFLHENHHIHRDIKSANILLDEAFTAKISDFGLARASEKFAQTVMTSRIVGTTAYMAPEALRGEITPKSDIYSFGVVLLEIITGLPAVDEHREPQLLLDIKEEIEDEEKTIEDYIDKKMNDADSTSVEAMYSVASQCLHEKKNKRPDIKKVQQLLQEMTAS

Broadly, the IC50 is the concentration that gives 50% inhibition. Consider `CC(C)Oc1cc2c(OCC3COCO3)ccnc2cc1C(N)=O` (stereo not shown) [Example 18, 4-(1,3-dioxolan-4-ylmethoxy)-6-(propan-2-yloxy)quinoline-7-carboxamide], for which the IC50 was found to be 507 nM. For the compound `CC(C)Oc1cc2c(O[C@@H]3CC4CC[C@H]3C4)ccnc2cc1C(N)=O` [Example 19, 4-[(1S,2R)-bicyclo[2.2.1]hept-2-yloxy]-6-(propan-2-yloxy)quinoline-7-carboxamide], the IC50 is 354 nM. The result for `CC(C)Oc1cc2c(OC3CC[C@@H]4CNC[C@H]34)nccc2cc1C(N)=O` (stereo partly drawn) [Example 20, 1-[(3aR,6aS)-octahydrocyclopenta[c]pyrrol-4-yloxy]-7-(propan-2-yloxy)isoquinoline-6-carboxamide] reads 102 nM; that for `CC(C)Oc1cc2c(OC3CC[C@@H]4CNC[C@H]34)ccnc2cc1C(N)=O` (stereo partly drawn) [Example 21, 4-[(3aR,6aS)-octahydrocyclopenta[c]pyrrol-4-yloxy]-6-(propan-2-yloxy)quinoline-7-carboxamide], 83 nM. The result for `CC(C)Oc1cc2c(OC[C@H]3CCN(C(=O)CC#N)C3)ccnc2cc1C(N)=O` [Example 22, 4-{[(3S)-1-(cyanoacetyl)pyrrolidin-3-yl]methoxy}-6-(propan-2-yloxy)quinoline-7-carboxamide] reads 45 nM. In the case of `CC(C)Oc1cc2c(OCC3CCOC3)nccc2cc1C(N)=O` (stereo not shown) [Example 24, 7-(propan-2-yloxy)-1-(tetrahydrofuran-3-ylmethoxy)isoquinoline-6-carboxamide], the concentration for half-maximal inhibition (IC50) came to 492 nM.

Turning to `CC(C)Oc1cc2c(OCC3CCCCO3)nccc2cc1C(N)=O` (stereo not shown) [Example 25, 7-(propan-2-yloxy)-1-(tetrahydro-2H-pyran-2-ylmethoxy)isoquinoline-6-carboxamide], the IC50 was 1130 nM. To `CC(C)Oc1cc2c(OCC3CCCS(=O)(=O)N3)nccc2cc1C(N)=O` (stereo not shown) [Example 27, 1-[(1,1-dioxido-1,2-thiazinan-3-yl)methoxy]-7-(propan-2-yloxy)isoquinoline-6-carboxamide] belongs 2480 nM. The result for `CC(C)Oc1cc2c(OC[C@H]3CCCNC3)nccc2cc1C(N)=O` [Example 28, 1-[(3S)-piperidin-3-ylmethoxy]-7-(propan-2-yloxy)isoquinoline-6-carboxamide] reads 1320 nM.

Regarding `CC(C)Oc1cc2c(OCC3COC(=O)N3C)nccc2cc1C(N)=O` (stereo not shown) [Example 29, 1-[(3-methyl-2-oxo-1,3-oxazolidin-4-yl)methoxy]-7-(propan-2-yloxy)isoquinoline-6-carboxamide], the concentration for half-maximal inhibition (IC50) is 76 nM. To `CC(C)Oc1cc2c(OC[C@H]3CCCO3)nccc2cc1C(N)=O` [Example 30, 7-(propan-2-yloxy)-1-[(2R)-tetrahydrofuran-2-ylmethoxy]isoquinoline-6-carboxamide] belongs 2440 nM; to `CC(C)Oc1cc2c(OC[C@@H]3CCCN3C)nccc2cc1C(N)=O` [Example 31, 1-{[(2S)-1-methylpyrrolidin-2-yl]methoxy}-7-(propan-2-yloxy)isoquinoline-6-carboxamide], 2620 nM.

`CC(=O)N1CCC(COc2nccc3cc(C(N)=O)c(OC(C)C)cc23)CC1` [Example 33, 1-[(1-acetylpiperidin-4-yl)methoxy]-7-(propan-2-yloxy)isoquinoline-6-carboxamide]: the IC50 was 2860 nM. Consider `CO[C@H]1CNC[C@@H]1COc1nccc2cc(C(N)=O)c(OC(C)C)cc12` [Example 34, 1-{[(3R,4R)-4-methoxypyrrolidin-3-yl]methoxy}-7-(propan-2-yloxy)isoquinoline-6-carboxamide], for which the half-inhibitory concentration (IC50) is 483 nM. The result for `CC(C)Oc1cc2c(OCC3CNC(=O)O3)nccc2cc1C(N)=O` (stereo not shown) [Example 35, 1-[(2-oxo-1,3-oxazolidin-5-yl)methoxy]-7-(propan-2-yloxy)isoquinoline-6-carboxamide] reads 16 nM; that for `CC(C)Oc1cc2c(OCC3CCOCC3)nccc2cc1C(N)=O` [Example 36, 7-(propan-2-yloxy)-1-(tetrahydro-2H-pyran-4-ylmethoxy)isoquinoline-6-carboxamide], 735 nM; that for `CC(C)Oc1cc2c(OC[C@@H]3CNCCO3)nccc2cc1C(N)=O` [Example 37, 1-[(2S)-morpholin-2-ylmethoxy]-7-(propan-2-yloxy)isoquinoline-6-carboxamide], 3520 nM. The result for `CC(C)Oc1cc2c(OCC3(F)CCNCC3)nccc2cc1C(N)=O` [Example 38, 1-[(4-fluoropiperidin-4-yl)methoxy]-7-(propan-2-yloxy)isoquinoline-6-carboxamide] reads 4640 nM; that for `CC(C)Oc1cc2c(OCC3CNCCO3)nccc2cc1C(N)=O` (stereo not shown) [Example 39, 1-(morpholin-2-ylmethoxy)-7-(propan-2-yloxy)isoquinoline-6-carboxamide], 386 nM. The result for `CC(C)Oc1cc2c(OC[C@]34CNC[C@H]3C4)nccc2cc1C(N)=O` [Example 40, 1-[(1S,5S)-3-azabicyclo[3.1.0]hex-1-ylmethoxy]-7-(propan-2-yloxy)isoquinoline-6-carboxamide] reads 109 nM; that for `CC(C)Oc1cc2c(OC[C@H]3CCCN3)nccc2cc1C(N)=O` [Example 41, 7-(propan-2-yloxy)-1-[(2R)-pyrrolidin-2-ylmethoxy]isoquinoline-6-carboxamide], 2350 nM. `CC(C)Oc1cc2c(OC[C@H]3[C@@H]4CNC[C@@H]43)nccc2cc1C(N)=O` [Example 42, 1-[(1R,5S,6r)-3-azabicyclo[3.1.0]hex-6-ylmethoxy]-7-(propan-2-yloxy)isoquinoline-6-carboxamide]: the IC50 turned out to be 219 nM.

In the case of `CC(C)Oc1cc2c(OCC3CCCCN3)nccc2cc1C(N)=O` (stereo not shown) [Example 43, 1-(piperidin-2-ylmethoxy)-7-(propan-2-yloxy)isoquinoline-6-carboxamide], the 50% inhibitory concentration (IC50) stood at 3320 nM. The result for `CC(C)Oc1cc2c(OCC3CN(C)CCO3)nccc2cc1C(N)=O` (stereo not shown) [Example 44, 1-[(4-methylmorpholin-2-yl)methoxy]-7-(propan-2-yloxy)isoquinoline-6-carboxamide] reads 4260 nM; that for `CC(C)Oc1cc2c(OCC3CCCN(C)C3)nccc2cc1C(N)=O` (stereo not shown) [Example 45, 1-[(1-methylpiperidin-3-yl)methoxy]-7-(propan-2-yloxy)isoquinoline-6-carboxamide], 1920 nM; that for `CC(C)Oc1cc2c(OC[C@H]3CNC[C@@H]3C(F)(F)F)nccc2cc1C(N)=O` [Example 46, 7-(propan-2-yloxy)-1-{[(3R,4R)-4-(trifluoromethyl)pyrrolidin-3-yl]methoxy}isoquinoline-6-carboxamide], 237 nM. To `CC(C)Oc1cc2c(OC[C@H]3CNCCO3)nccc2cc1C(N)=O` [Example 47, 1-[(2R)-morpholin-2-ylmethoxy]-7-(propan-2-yloxy)isoquinoline-6-carboxamide] belongs 2790 nM; to `CC(C)Oc1cc2c(OC[C@@H]3CCCNC3)nccc2cc1C(N)=O` [Example 48, 1-[(3R)-piperidin-3-ylmethoxy]-7-(propan-2-yloxy)isoquinoline-6-carboxamide], 366 nM. Consider `CC(C)Oc1cc2c(OC[C@H]3CCNC3)nccc2cc1C(N)=O` [Example 49, 7-(propan-2-yloxy)-1-[(3S)-pyrrolidin-3-ylmethoxy]isoquinoline-6-carboxamide], for which the IC50 worked out at 451 nM. The result for `CC(C)Oc1cc2c(OC[C@H]3CCNC3)ccnc2cc1C(N)=O` [Example 50, 6-(propan-2-yloxy)-4-[(3S)-pyrrolidin-3-ylmethoxy]quinoline-7-carboxamide] reads 701 nM; that for `CC(C)Oc1cc2c(OC[C@@H]3CNCCO3)ccnc2cc1C(N)=O` [Example 51, 4-[(2S)-morpholin-2-ylmethoxy]-6-(propan-2-yloxy)quinoline-7-carboxamide], 2410 nM. Regarding `CC(C)Oc1cc2c(OC3CCC34CCNCC4)ccnc2cc1C(N)=O` (stereo not shown) [Example 52, 4-(7-azaspiro[3.5]non-1-yloxy)-6-(propan-2-yloxy)quinoline-7-carboxamide], the IC50 was 4240 nM.

Consider `CC(C)Oc1cc2c(OC[C@H]3CNCCO3)ccnc2cc1C(N)=O` [Example 53, 4-[(2R)-morpholin-2-ylmethoxy]-6-(propan-2-yloxy)quinoline-7-carboxamide], for which the IC50 was 2380 nM. The result for `CC(C)Oc1cc2c(OCC3(F)CCNCC3)ccnc2cc1C(N)=O` [Example 54, 4-[(4-fluoropiperidin-4-yl)methoxy]-6-(propan-2-yloxy)quinoline-7-carboxamide] reads 2440 nM.

`CC(C)Oc1cc2c(OC[C@@]3(C)CNC[C@@H]3C)ccnc2cc1C(N)=O` [Example 55, 4-{[(3R,4R)-3,4-dimethylpyrrolidin-3-yl]methoxy}-6-(propan-2-yloxy)quinoline-7-carboxamide]: the half-maximal inhibitory concentration (IC50) came to 264 nM. As for `CC(C)Oc1cc2c(OCC3(C)CCNCC3)ccnc2cc1C(N)=O` [Example 56, 4-[(4-methylpiperidin-4-yl)methoxy]-6-(propan-2-yloxy)quinoline-7-carboxamide], the IC50 came to 1490 nM.

Consider `CC(C)Oc1cc2c(OC[C@H]3CNC(=O)O3)ccnc2cc1C(N)=O` [Example 57, 4-{[(5R)-2-oxo-1,3-oxazolidin-5-yl]methoxy}-6-(propan-2-yloxy)quinoline-7-carboxamide], for which the IC50 amounted to 5.8 nM. On to `CC(C)Oc1cc2c(OCC3(C)CCCNC3)ccnc2cc1C(N)=O` (stereo not shown) [Example 58, 4-[(3-methylpiperidin-3-yl)methoxy]-6-(propan-2-yloxy)quinoline-7-carboxamide], for which the 50% inhibitory concentration (IC50) turned out to be 144 nM.

Turning to `CC(C)Oc1cc2c(OCC3CCCNC3)ccnc2cc1C(N)=O` (stereo not shown) [Example 59, 4-(piperidin-3-ylmethoxy)-6-(propan-2-yloxy)quinoline-7-carboxamide], the IC50 amounted to 243 nM. To `CC(C)Oc1cc2c(OC[C@H]3CCCN3C(=O)CC#N)nccc2cc1C(N)=O` [Example 61, 1-{[(2R)-1-(cyanoacetyl)pyrrolidin-2-yl]methoxy}-7-(propan-2-yloxy)isoquinoline-6-carboxamide] belongs 249 nM.
